Experimental data reported in EP3838286B1, “ANTIMICROBIAL PEPTIDE FROM POLISTES GALLICUS VENOM AND ITS ANALOGS” (Latoxan, priority 2019, dated 2021).
Converted amounts (≈) assume the structure as drawn. Read-outs that look alike come from different tables or passages of the source. Square brackets hold non-standard residues; d marks the D form. Ends that are not written are not given here. Peptide text beside a SMILES is read from it.

Assays:
[1] = tested on: B. subtilis (Nisin-resistant)
[2] = Cytotoxicity assay (resazurin); format: cell-based; conditions: human
Procedure: Normal human cells used were BEAS-2B (ATCC CRL-9609), IMR-90 (ATCC CCL-186) and Human Umbilical Vein Endothelial Cells (HUVEC) (from Sigma-Aldrich) corresponding respectively to human normal lung epithelial, normal lung fibroblast cells and human normal endothelial cells. All cells except HUVEC cells were cultured in Dulbecco's modified essential medium (DMEM) supplemented with 10% fetal calf serum (FCS), 1% L-glutamine and 1% antibiotics (all from Invitrogen). HUVEC cells were cultured in specific endothelial media (from Sigma Aldrich). Cells were seeded onto […] maintained in a 5% CO2 incubator at 37 °C. Cells grown on 25 cm^2 flasks were detached using trypsin-EDTA solution (from Thermofisher), counted using Mallassez counting chamber and seeded into 96-well cell culture plates (Greiner bio-one) at approximately 10,000 cells per well. The cells were left to grow for 48-72 h at 37 °C in a 5% CO2 incubator until they reached confluence. Plates were then aspirated and increasing concentrations of peptides diluted in culture media were added to the cells for 48 h at 37 °C in a 5% CO2 incubator. At the end of the incubation, wells were emptied and cell viability was evaluated using Resazurin based in vitro toxicity assay kit (from Sigma-Aldrich) following manufacturer's instructions. Briefly, Resazurin stock solution was diluted 1:10 in sterile PBS containing calcium and magnesium (PBS, pH 7.4) and empty wells were filled with 100 µL of the diluted solution. After 4 h incubation at 37 °C, fluorescence intensity was measured using microplate reader (Synergy Mx, Biotek) with an excitation wavelength of 530 nm and an emission wavelength of 590 nm. The fluorescence values were normalized by the controls (buffer treated cells) and expressed as percent viability. The IC50 values of peptides on cell viability (i.e. the concentration of derivative causing a reduction of 50% of cell viability) were determined using GraphPad® Prism 7 software. t-Test and two way ANOVA analyses were used to address the significant differences between mean values with significance set at p < 0.05.

M. smegmatis = conditions: 72 h
human erythrocytes = assay: Hemolytic activity assay; format: cell-based
Procedure: The hemolytic activity of each peptide was determined by the leakage of hemoglobin from human erythrocytes (obtained from Divbioscience, NL) as previously described (Oyama et al., 2017 Biofilms Microbiomes, Dec 1;3:33).
Briefly, human erythrocytes were washed 3 times with phosphate buffer saline (PBS) and concentrated using centrifugation at 800 g for 5 min. Human erythrocytes were then resuspended in PBS at a final concentration of 8 %. 100 µl of human erythrocytes were then added per well of sterile 96 well microplate already containing 15 µl of serially diluted antimicrobials (1:2 in distilled water). After 1 h at 37°C, the microplate was centrifuged at 800 g for 5 min. 100 µl were then carefully collected and transferred to a new 96 well microplate and OD was measured at 405 nm. Hemolysis caused by peptides was expressed as percentage of hemolysis; Triton-X100 at 0.1 % (v:v) was used as positive control and gave 100 % hemolysis. Hemolysis rate was determined as below: Hemolysis rate (%) = (A−A2)/(A1−A2) × 100% [formula] where A is the absorbance of indicator mixtures with different factors, A1 and A2 are the positive control, and the negative control, respectively.

[3] = BEAS-2B normal lung epithelial cells, normal lung epithelium, read-out: Cytotoxicity IC50 (µM) BEAS
[4] = HUVEC (human umbilical vein endothelial cells), normal endothelium, read-out: Cytotoxicity IC50 (µM) HUVEC
[5] = IMR-90 normal lung fibroblast cells, read-out: Cytotoxicity IC50 (µM) IMR90

CC[C@@H](C)[C@@H](N)C(=O)N[C@H](CC(C)C)C(=O)N[C@H](CO)C(=O)N[C@H](C)C(=O)N[C@@H](C(=O)N[C@H](CC(C)C)C(=O)NCC(=O)N[C@H](CC(C)C)C(=O)N[C@H](CC(C)C)C(=O)N[C@H](CCCCN)C(=O)N[C@H](CC(N)=O)C(=O)N[C@H](CC(C)C)C(N)=O)[C@H](C)CC [(i1I12)enantio, ilsailgllknl] (H-[dI][dL][dS][dA][dI][dL]G[dL][dL][dK][dN][dL]-NH2)
MIC (µM) P. aeruginosa (P. aeruginosa): 100 µM (≈ 127 µg/mL)
MIC (µM) B. subtilis (B. subtilis): 3.13 µM (≈ 3.96 µg/mL)
MIC (µM) E. coli (E. coli): 100 µM (≈ 127 µg/mL)
MIC (µM) S. aureus (S. aureus): 6.25 µM (≈ 7.92 µg/mL)

CC[C@H](C)[C@H](NC(=O)CN)C(=O)NCC(=O)N[C@@H](C)C(=O)N[C@H](C(=O)N[C@@H](CC(C)C)C(=O)N[C@@H](CCCCN)C(=O)N[C@H](C(=O)N[C@@H](CC(C)C)C(=O)N[C@H](C(=O)N[C@H](C(=O)NCC(=O)N[C@@H](CC(C)C)C(=O)N1CCC[C@H]1C(=O)N[C@@H](C)C(=O)N[C@@H](CC(C)C)C(=O)N[C@H](C(=O)N[C@@H](CO)C(=O)N[C@@H](Cc1c[nH]c2ccccc12)C(=O)N[C@H](C(=O)N[C@@H](CCCCN)C(=O)N[C@@H](CCCNC(=N)N)C(=O)N[C@@H](CCCCN)C(=O)N[C@@H](CCCNC(=N)N)C(=O)N[C@@H](CCC(N)=O)C(=O)N[C@@H](CCC(N)=O)C(N)=O)[C@@H](C)CC)[C@@H](C)CC)[C@@H](C)O)[C@@H](C)O)C(C)C)C(C)C [Melittine, Melittin, reference compound]
MIC against B. subtilis (B. subtilis): 1.56 µM (≈ 4.44 µg/mL)

CC[C@@H](C)[C@@H](N)C(=O)N[C@@H](CC(C)C)C(=O)N[C@@H](CCCCN)C(=O)N[C@@H](C)C(=O)N[C@H](C(=O)N[C@@H](CCCCN)C(=O)N[C@@H](CCCCN)C(=O)N[C@@H](CC(C)C)C(=O)N[C@@H](CC(C)C)C(=O)N[C@H](CCCCN)C(N)=O)[C@@H](C)CC [i1k10*] (H-[dI]LKAIKKLL[dK]-NH2)
MBC (µM) P. aeruginosa (P. aeruginosa): 1.5 µM (≈ 1.75 µg/mL)
MIC PA (P. aeruginosa): 0.78 µM (≈ 0.91 µg/mL)
MBC (µM) S. enterica (S. enterica): 12.5 µM (≈ 14.6 µg/mL)
MIC (µM) S. enterica (S. enterica): 12.5 µM (≈ 14.6 µg/mL)
MBC (µM) C. farmeri (C. farmeri): 3.12 µM (≈ 3.64 µg/mL)
MIC (µM) C. farmeri (C. farmeri): 3.12 µM (≈ 3.64 µg/mL)
MBC (µM) B. subtilis (Nisin-resistant) [1]: 3.12 µM (≈ 3.64 µg/mL)
MIC (µM) B. subtilis (Nisin-resistant) [1]: 3.12 µM (≈ 3.64 µg/mL)
MIC (µM) A.baumani (A.baumani): 100 µM (≈ 117 µg/mL)
MBC (µM) P. aeruginosa FQR (P. aeruginosa FQR): 25 µM (≈ 29.2 µg/mL)
MIC (µM) P. aeruginosa FQR (P. aeruginosa FQR): 3.12 to 6.25 µM
MIC (µM) E. coli (E. coli): 50 µM (≈ 58.3 µg/mL)
MBC (µM) L. lactis (L. lactis): 1.56 µM (≈ 1.82 µg/mL)
MIC (µM) L. lactis (L. lactis): 0.78 µM (≈ 0.91 µg/mL)
MBC (µM) C. rodentium (C. rodentium): 12.5 µM (≈ 14.6 µg/mL)
MIC (µM) C. rodentium (C. rodentium): 12.5 µM (≈ 14.6 µg/mL)
MBC (µM) H. pylori (H. pylori): 12.5 µM (≈ 14.6 µg/mL)
MIC (µM) H. pylori (H. pylori): 12.5 µM (≈ 14.6 µg/mL)
MBC (µM) S. flexneri (S. flexneri): 6.25 µM (≈ 7.29 µg/mL)
MIC (µM) S. flexneri (S. flexneri): 3.12 to 6.25 µM
MBC (µM) E. coli EHEC K88 (E. coli EHEC K88): 6.25 µM (≈ 7.29 µg/mL)
MIC (µM) E. coli EHEC K88 (E. coli EHEC K88): 6.25 to 12.5 µM
CC50 at 48 h [2, 3]: 867 µM
CC50 at 48 h [2, 4]: 814 µM
CC50 at 48 h [2, 5]: 783 µM
MBC (µM) A. gandavensis (A. gandavensis): 0.78 µM (≈ 0.91 µg/mL)
MIC (µM) A. gandavensis (A. gandavensis): 0.78 µM (≈ 0.91 µg/mL)
MBC (µM) V. alginolyticus (V. alginolyticus): 0.78 µM (≈ 0.91 µg/mL)
MIC (µM) V. alginolyticus (V. alginolyticus): 0.78 µM (≈ 0.91 µg/mL)
MIC (µM) M. smegmatis (M. smegmatis): 12.5 µM (≈ 14.6 µg/mL)
MBC (µM) P. aeruginosa 01 (P. aeruginosa 01): 12.5 µM (≈ 14.6 µg/mL)
MIC (µM) P. aeruginosa 01 (P. aeruginosa 01): 3.125 µM (≈ 3.65 µg/mL)

Ac-IKAIKKLLKN-NH2 [Ac I1N10*]
MIC (µM) P. aeruginosa (P. aeruginosa): 50 µM
MIC (µM) A.baumani (A.baumani): >100 µM
MIC (µM) E. coli (E. coli): 100 µM

ILKAIKK-NH2 [I1K7*, ILKAIKK]
MIC (µM) P. aeruginosa (P. aeruginosa): 100 µM
MIC (µM) A.baumani (A.baumani): 100 µM
MIC (µM) E. coli (E. coli): 100 µM
MIC (µM) S. aureus (S. aureus; Table 4, n=4): / (« / » means MIC > 100µM)

ILKAIKKLLK-NH2 [I1K10*]
hemotoxicity: no toxicity towards red blood cells up to (human erythrocytes; highest concentration tested): > 10 mM

ILKAIKKLLKN-NH2 [I1N11]
MBC (µM) P. aeruginosa (P. aeruginosa): 6.25 µM
MIC (µM) P. aeruginosa (P. aeruginosa): 6.25 µM
MIC PA (P. aeruginosa): 6.25 µM
MBC (µM) S. enterica (S. enterica): 50 µM
MIC (µM) S. enterica (S. enterica): 100 µM
MBC (µM) C. farmeri (C. farmeri): 12.5 µM
MIC (µM) C. farmeri (C. farmeri): 12.5 µM
MBC (µM) B. subtilis (Nisin-resistant) [1]: 12.5 µM
MIC (µM) B. subtilis (Nisin-resistant) [1]: 12.5 µM
MBC (µM) P. aeruginosa FQR (P. aeruginosa FQR): 100 µM
MIC (µM) P. aeruginosa FQR (P. aeruginosa FQR): 25 µM
MBC (µM) L. lactis (L. lactis): 3.12 µM
MIC (µM) L. lactis (L. lactis): 1.5 µM
MBC (µM) C. rodentium (C. rodentium): 50 µM
MIC (µM) C. rodentium (C. rodentium): 50 µM
MBC (µM) H. pylori (H. pylori): 100 µM
MIC (µM) H. pylori (H. pylori): 100 µM
MBC (µM) S. flexneri (S. flexneri): 50 µM
MIC (µM) S. flexneri (S. flexneri): 50 µM
MBC (µM) E. coli EHEC K88 (E. coli EHEC K88): >100 µM
MIC (µM) E. coli EHEC K88 (E. coli EHEC K88): 100 µM
CC50 at 48 h [2, 3]: 821 µM
CC50 at 48 h [2, 4]: 826 µM
CC50 at 48 h [2, 5]: 892 µM
MBC (µM) A. gandavensis (A. gandavensis): 3.12 µM
MIC (µM) A. gandavensis (A. gandavensis): 3.12 µM
MBC (µM) V. alginolyticus (V. alginolyticus): 0.78 µM
MIC (µM) V. alginolyticus (V. alginolyticus): 0.78 µM
MIC (µM) M. smegmatis (M. smegmatis): 25 µM
MBC (µM) P. aeruginosa 01 (P. aeruginosa 01): 50 µM
MIC (µM) P. aeruginosa 01 (P. aeruginosa 01): 25 µM

ILSAILGLL-NH2 [Peptides I1L9]
MIC (µM) B. subtilis (B. subtilis): 100 µM
MIC (µM) S. aureus (S. aureus): 100 µM

KLLGLILI-NH2 [K1I8]
MIC (µM) P. aeruginosa (P. aeruginosa; Table 3, n=4): / (« / » means MIC > 100µM)
MIC (µM) E. coli (E. coli): 50 µM
MIC (µM) S. aureus (S. aureus): 25 µM

LKAIKKLL-NH2 [L2L9*]
MIC (µM) P. aeruginosa (P. aeruginosa): 25 µM
MIC (µM) E. coli (E. coli): 100 µM

LNKLLGLIASLI-NH2 [L12I1]
MIC (µM) P. aeruginosa (P. aeruginosa): 50 µM

LSAILGLLK-NH2 [Peptides L2K10]
MIC (µM) B. subtilis (B. subtilis): 100 µM

RLLGLWLW-NH2 [LTX-gallicune-2 (R1W8)]
MHC50 (human erythrocytes; human erythrocytes, 50% lysis): 225 µM
MHC100 (human erythrocytes; human erythrocytes, 100% lysis): 1000 µM
times less toxic (hemotoxic) than Gallicus-CP (human erythrocytes; human erythrocytes, Fig 3): 20 times
